Laboratory results published in ChEMBL document CHEMBL4627294, “Synthesis and efficacy of pyrvinium-inspired analogs against tuberculosis and malaria pathogens” (Bioorg Med Chem Lett, 2020).
In brackets after ≈: the same amount, converted by molar mass. Activity calls are given as the source filed them. No cut-off for these calls is given here.

How the values were obtained:
[1] = Selectivity index, ratio of IC50 for CHOK1 cells to MIC for Mycobacterium tuberculosis H37Rv; type: toxicity; conditions: hamster, CHO-K1 cells
[2] = tested on: NRK-49F; test: Cytotoxicity against rat NRK-49F cells; type: cell-based
[3] = tested on: Mycobacterium tuberculosis; test: Antimycobacterial activity against Mycobacterium tuberculosis H37Rv assessed as inhibition of bacterial growth by MABA assay; type: functional
[4] = tested on: CHO-K1; test: Cytotoxicity against CHOK1 cells; type: cell-based; conditions: Cricetulus griseus
[5] = Cytotoxicity against human HEK cells; type: cell-based; conditions: HEK293
[6] = Selectivity index, ratio of IC50 for CHOK1 cells to IC50 for Plasmodium falciparum 3D7; type: toxicity; conditions: hamster, CHO-K1 cells; read-out: Ratio IC50
[7] = tested on: Plasmodium falciparum; test: Antimalarial activity against erythrocytic stage of Plasmodium falciparum 3D7 incubated for 50 hrs; type: functional, organism-based; conditions: 3D7, 50 h
[8] = tested on: Plasmodium falciparum; test: Antimalarial activity against drug-resistant Plasmodium falciparum Dd2; type: functional, organism-based
[9] = tested on: Plasmodium falciparum; test: Parasiticidal activity against early ring stage of Plasmodium falciparum 3D7 assessed as reduction in parasite growth incubated for 48 hrs followed by compound washed off and measured after 48 hrs incubation in normal medium; type: functional, organism-based
[10] = tested on: Plasmodium falciparum; test: Antimalarial activity against early ring stage of Plasmodium falciparum 3D7 assessed as parasite growth arrest at early trophozite stage at 3 times of IC50 incubated for 48 hrs by giemsa staining based light microscopy; type: functional, organism-based
[11] = tested on: Plasmodium falciparum; test: Antimalarial activity against Plasmodium falciparum 3D7 assessed as inhibition of parasite growth incubated for 96 hrs; type: functional, organism-based; conditions: 3D7, 96 h

SMILES: CN(C)c1ccc2c(ccc(/C=C/c3ccccc3)[n+]2C)c1
- selectivity ratio [1]: < 0.41
- IC50 [2]: 42.1 µM
- MIC [3]: > 100 µM
- IC50 [4]: 41.6 µM
- IC50 [5]: 39.8 µM
- selectivity ratio [6]: 467
- IC50 [7]: 0.089 µM

SMILES: CN(C)c1ccc2c(ccc(/C=C/c3ccc(C#N)cc3)[n+]2C)c1
- selectivity ratio [1]: 1.05
- IC50 [2]: 50.2 µM
- MIC [3]: 50 µM
- IC50 [4]: 52.6 µM
- IC50 [5]: 62.1 µM
- selectivity ratio [6]: 553
- IC50 [7]: 0.094 µM

SMILES: CCc1nc(N)nc(N)c1-c1ccc(Cl)cc1 [PYRIMETHAMINE]
- IC50 [7]: 0.011 µM

SMILES: CN(C)c1ccc2c(ccc(/C=C/c3c[nH]c4ccccc34)[n+]2C)c1
- selectivity ratio [1]: 3.64
- IC50 [2]: 11.3 µM
- MIC [3]: 3.12 µM
- IC50 [4]: 11.4 µM
- IC50 [5]: 10.6 µM
- selectivity ratio [6]: 188
- IC50 [7]: 0.06 µM
- IC50 [8]: 0.097 µM

SMILES: CN(C)c1ccc2c(ccc(/C=C/c3ccc[nH]3)[n+]2C)c1
- selectivity ratio [1]: 3.11
- IC50 [2]: 76 µM
- MIC [3]: 25 µM
- IC50 [4]: 77.8 µM
- IC50 [5]: 66.9 µM
- selectivity ratio [6]: 50.5
- IC50 [7]: 1.54 µM

SMILES: Cc1cc(/C=C/c2ccc3cc(N(C)C)ccc3[n+]2C)c(C)n1-c1ccccc1
- selectivity ratio [1]: 1.73
- IC50 [2]: 20.2 µM
- MIC [3]: 6.25 µM
- IC50 [4]: 10.9 µM
- IC50 [5]: 16 µM
- selectivity ratio [6]: 14
- IC50 [7]: 0.774 µM

SMILES: CN(C)c1ccc2c(ccc(/C=C/c3ccccc3[N+](=O)[O-])[n+]2C)c1
- selectivity ratio [1]: 1.47
- IC50 [2]: 69.5 µM
- MIC [3]: 50 µM
- IC50 [4]: 73.9 µM
- IC50 [5]: 66.7 µM
- selectivity ratio [6]: 20.5
- IC50 [7]: 3.6 µM

SMILES: CO[C@H]1/C=C/O[C@@]2(C)Oc3c(C)c(O)c4c(O)c(c(/C=N/N5CCN(C)CC5)c(O)c4c3C2=O)NC(=O)/C(C)=C\C=C\[C@H](C)[C@H](O)[C@@H](C)[C@@H](O)[C@@H](C)[C@H](OC(C)=O)[C@@H]1C [RIFAMPIN]
- MIC [3]: 0.24 µM (≈ 0.198 µg/mL)

SMILES: CN(C)c1ccc2c(ccc(/C=C/c3cc(Cl)cc(Cl)c3O)[n+]2C)c1
- selectivity ratio [1]: 2.18
- IC50 [2]: 49.1 µM
- MIC [3]: 25 µM
- IC50 [4]: 54.7 µM
- IC50 [5]: 50.1 µM
- selectivity ratio [6]: 22.1
- IC50 [7]: 2.47 µM

SMILES: CN(C)c1ccc2c(ccc(/C=C/c3ccc(Cl)c(Cl)c3)[n+]2C)c1
- selectivity ratio [1]: 3.98
- IC50 [2]: 11.3 µM
- MIC [3]: 3.12 µM
- IC50 [4]: 12.4 µM
- IC50 [5]: 8.56 µM
- selectivity ratio [6]: 142
- IC50 [7]: 0.087 µM

SMILES: CN(C)c1ccc2c(ccc(/C=C/c3c(Cl)cccc3Cl)[n+]2C)c1
- selectivity ratio [1]: 2.53
- Activity [9]: Active
- IC50 [2]: 5.23 µM
- MIC [3]: 3.12 µM
- Activity [10]: Active
- IC50 [4]: 7.92 µM
- IC50 [5]: 5.62 µM
- IC50 [11]: 0.00237 µM
- selectivity ratio [6]: 344
- IC50 [7]: 0.023 µM
- IC50 [8]: 0.053 µM

SMILES: Cc1cc(/C=C/c2ccc3cc(N(C)C)ccc3[n+]2C)c(C)n1-c1ccccn1
- selectivity ratio [1]: 2.42
- IC50 [2]: 12.7 µM
- MIC [3]: 6.25 µM
- IC50 [4]: 15.2 µM
- IC50 [5]: 14.6 µM
- selectivity ratio [6]: 66.2
- IC50 [7]: 0.228 µM

SMILES: C[C@@H]1CC[C@H]2[C@@H](C)C(=O)O[C@@H]3O[C@@]4(C)CC[C@@H]1[C@]32OO4 [ARTEMISININ]
- IC50 [7]: 0.025 µM
- IC50 [8]: 0.021 µM

SMILES: CN(C)c1ccc2c(ccc(/C=C/c3cc(Cl)ccc3O)[n+]2C)c1
- selectivity ratio [1]: 9.72
- IC50 [2]: 12 µM
- MIC [3]: 3.12 µM
- IC50 [4]: 30.3 µM
- IC50 [5]: 15.3 µM
- selectivity ratio [6]: 68.7
- IC50 [7]: 0.441 µM

SMILES: CN(C)c1ccc2c(ccc(/C=C/c3cccc(C#N)c3)[n+]2C)c1
- selectivity ratio [1]: 3.5
- IC50 [2]: 59.5 µM
- MIC [3]: 25 µM
- IC50 [4]: 87.6 µM
- IC50 [5]: 56 µM
- selectivity ratio [6]: 404
- IC50 [7]: 0.217 µM
